Experimental data published in patent US20260217746A1, “CRYSTALLINE FORMS OF ANTIOXIDANT COMPOUND” (Mitotech Ltd, priority 2023, published 2026).

Tests used:
Assay type in all cases: physicochemical
[1] = Stability of crystalline SkQ1 chloride and iodide compared with SkQ1 bromide; conditions: crystals obtained by the same crystallization methods
Text: Purity and stability parameters of obtained SkQ1 Cl and SkQ I were similar to such parameters of SkQ1 bromide.

[2] = Solubility in water and in protic solvents (observations during crystallization work)
Method: Attempts to reduce the concentration of ethanol and to use isopropanol were undertaken. SkQ1 bromide in an amount of 177 mg was added to an ethanol (1V)-ethyl acetate (5V) mixture. In another experiment, SkQ1 in an amount of 178 mg was added to an isopropanol (1V)-ethyl acetate (5V) mixture. […] To each of the above solutions, 5V ml of MTBE was added, initially oiling out the supersaturated solution. After leaving the solution overnight at room temperature, crystals were formed. This process with varying amounts of ethanol (from 0.274-0.574 V) led to similar results of solid formation after MTBE addition. Similarly, ethyl acetate was increased to 10V, with similar results of fine solid formation only after adding MTBE, but with lower yields. When ethanol solvent amounts were increased ton 1.174 V, crystallization occurred after adding MTBE, but yields were low.

[3] = Hygroscopicity of the isolated solid; conditions: non-crystalline solid as isolated
Text: Hygroscopic solids are associated with numerous difficulties when attempting to use them in pharmaceutical compositions, including low stability and difficulty in handling. Crystallization of halide salts of SkQ1 by using a number of solvents, individually or in combination, was attempted.

[4] = Photodegradation of solid SkQ1 bromide under natural day/night illumination
Method: As a result, SkQ1 was stored in light protective packaging or a dark glass container. The crystalline form of SkQ1 bromide as prepared in Example 2C and was tested by placing 50 mg portions at room temperature in transparent plastic vials, under conditions of natural change of day and night illumination with indirect sunlight.

[5] = Resistance to gamma radiation (sterilization); conditions: sterilization by gamma radiation

**Q.** Which “stability parameters relative to SkQ1 bromide” value [1] does the source give for CC1=C(C)C(=O)C(CCCCCCCCCC[P+](c2ccccc2)(c2ccccc2)c2ccccc2)=CC1=O [SkQ1 Cl] here?
**A.** The value was “similar”.

**Q.** What does the source list for CC1=C(C)C(=O)C(CCCCCCCCCC[P+](c2ccccc2)(c2ccccc2)c2ccccc2)=CC1=O [SkQ1 bromide, 2,3-dimethyl-1,4-benzoquinone-5-decyl-triphenylphosphonium bromide]?
**A.** solubility in protic solvents ([2]; ethanol (1V)- or isopropanol (1V)-ethyl acetate (5V) mixture, room temperature, 0.5 hours): highly soluble; solubility in water ([2]; water): sparingly soluble; hygroscopicity [3]: hygroscopic; hygroscopicity ([3]; listed as SkQ1 bromide salt): highly hygroscopic

**Q.** For CC1=C(C)C(=O)C(CCCCCCCCCC[P+](c2ccccc2)(c2ccccc2)c2ccccc2)=CC1=O [Amorphous SkQ1 bromide, 2,3-dimethyl-1,4-benzoquinone-5-decyl-triphenylphosphonium bromide, reference compound], which photosensitivity ([4]; amorphous form, stored in light protective packaging or dark glass container) is on record?
**A.** Its photosensitivity is “photosensitive”.

**Q.** And the “stability to gamma radiation” value ([5]; listed as oil form)?
**A.** Its value is “degraded”.

**Q.** Which sample photodegradation ([4]; 50 mg portions, room temperature, transparent plastic vials, natural day and night illumination with indirect sunlight, analyzed at 6 hours, 4 days, 1 month and 2 months) does the source give for CC1=C(C)C(=O)C(CCCCCCCCCC[P+](c2ccccc2)(c2ccccc2)c2ccccc2)=CC1=O [crystalline form of SkQ1 bromide, 2,3-dimethyl-1,4-benzoquinone-5-decyl-triphenylphosphonium bromide] here?
**A.** The sample photodegradation was “no degradation was found in any of the samples”.

**Q.** What about the “resistance to degradation, in particular photodegradation, compared to the previously known amorphous form” value ([4]; crystalline versus amorphous form) of the same compound?
**A.** The value was “more resistant to degradation”.

**Q.** And the “stability to gamma radiation” value ([5]; listed as crystalline SkQ1)?
**A.** The value was “resistant to gamma radiation”.
